Measured values published in US10081662B2, “Modified relaxin B chain peptides” (The Florey Institute of Neuroscience and Mental Health, priority 2014, dated 2018).
Peptide text beside a SMILES is read from it.

Columns and labels:
[1] = system: mouse model of OVA-induced chronic allergic airway disease; test: Mouse model of OVA-induced chronic allergic airway disease; format: in vivo; conditions: Balb/c mice
Text: Seven to eight-week old male 129SV mice (which are sensitive to tissue injury and fibrosis) and age-matched female Balb/c mice (which are sensitive to changes in airway hyperresponsiveness) were used for the induction of isoproterenol-induced cardiomyopathy and ovalbumin-induced chronic allergic airways disease, respectively. 16 five week-old male C57BL/6 mice were used in the induction of prostate cancer growth. All animals were obtained from Monash Animal Services (Monash University, Clayton, Victoria, Australia) and housed under standard conditions (maintained on an 12 h light-12 h dark lighting cycle with free access to food and water) in the Department of Pharmacology Animal Room at Monash University.
Twenty-four hours after the last vehicle/drug administration, methacholine-induced airway reactivity was assessed by invasive plethysmography as described before (Locke et al. 2007, Am J Respir Mol Biol 36, 625-632; Royce et al. 2009, Endocrinology 150, 2692-2699). Mice were anaesthetized intraperitoneally with 200 μg/g ketamine and 10 μg/g xylazine. Tracheotomy was performed using an 18-gauge tracheotomy tube and jugular vein cannulated with a 0.61 9 0.28 mm polyethylene tube (Microtube Extrusions, North Rocks, NSW, Australia), Mice were then placed in a plethysmograph chamber (Buxco Research Systems, Wilmington, N.C., USA) where increasing concentrations of acetyl-β-methacholine (from 31.25 μg/kg to 500 μg/kg) were delivered intravenously in five doses. After every dose, airway resistance and compliance were measured (Biosystem XA version 2.7.9; Buxco Electronics Inc, Wilmington, N.C., USA). The change in airway resistance calculated by the maximal resistance after each dose minus baseline resistance (phosphate buffered saline alone) was plotted against each dose of methacholine evaluated.
The mid zone of the male mouse heart and largest lung lobe from female Balb/c mice were fixed in 10% neutral buffered formalin for 24-48 h before being processed and embedded routinely in paraffin wax. Representative sections of tissue, 3-5 um each, were taken and stained with either picrosirius red (Samuel et al. 2011 Lab Invest 91, 675-690) for the detection of interstitial collagen or Masson's trichrome (Royce et al, 2009, Endocrinology 150, 2692-2699) for the detection of subepithelial basement membrane collagen deposition).
Changes in picrosirius-red stained interstitial collagen or epithelial thickness and subepithelial collagen (fibrosis) around the airway lumen from Masson's trichrome-stained sections; which were all captured (at ×20 magnification) using a SPOT digital camera (Q Imaging, Burnaby, BC, Canada) and analysed with Image J 1.3 software (National Institutes of Health, Bethesda, Md.). Four to five fields per mid zone of the heart or 4-5 airways (of 150-350 μm in diameter) per mouse were assessed. Epithelial thickness and subepithelial collagen regions were traced with a digital pen and the thickness of each region calculated by the imaging software. Results were expressed as mean thickness ([…]) of the 4-5 airways sampled.
The apical region of the heart or second largest lung lobe from each mouse was treated as described previously (Samuel C S, et at., 2003, FASEB J 17, 121-123; Royce et at. 2009, Endocrinology 150, 2692-2699) for the determination of hydroxyproline content. Hydroxyproline values were estimated based on a standard curve constructed with serial dilutions of a 0.1 mg/mL stock of trans-4-hydroxyproline-L-proline (Sigma-Aldrich). Hydroxyproline values were then converted to collagen content as detailed previously (Samuel CS, et al. 2004. Endocrinology 145, 4125-4133) and, in turn, divided by the dry weight of each corresponding left ventricular or lung tissue assessed to yield collagen concentration (a measure of fibrosis).
The inventors also tested the fibrosis preventing activity of B7-33 C11.23S in a model of chronic allergic airway disease (AAD). […]

[2] = system: rat model of myocardial infarction; test: Rat model of myocardial infarction-induced heart failure; format: in vivo; conditions: vs vehicle
Description: Adult male Sprague-Dawley rats weighing 250-320 g were obtained from Animal Resources Centre, Perth, Wash., Australia. The rats were group housed in a constant temperature of 22±1° C. and a relative humidity of 50-60% under a controlled light-dark cycle of 12 hours. Rats were given access to standard laboratory rat chow and drinking water ad libitum.
Heart failure was induced as previously described (Ruchaya et al., 2014, Exp Physiol 99, 111-122). Breifly, to induce heart failure, rats were anaesthetised with an intramuscular injection of ketamine (60 mg/kg) and medetomide hydrochloride ([…]). A left sided thoracotomy through an opening between the fourth and fifth rib was performed, the heart was exteriorised and the left anterior descending coronary artery was ligated. Anaesthesia was reversed with antipamezole hydrocholide (1 mg/kg). Penicillin (1000 U) and buprenorphine (0.05 mg/kg) was administered to aid post-operative recovery. Animals were left to recover from the surgery under a heating source. Rats were individually housed after the surgery.
Eight weeks after myocardial infarction surgery, rats were randomly assigned to 3 groups (vehicle, H2 and B7-33), re-anaesthetised (2-3% isoflurane) and an osmotic mini-pump (model 2ML4, Alzet, Cupertino, Calif.) implanted intraperitoneally. Vehicle (saline), native H2 relaxin (0.5 mg/kg/day) or B7-33 C11.23S (0.5 mg/kg/day) was continuously administered for 28 days. At the conclusion of treatment, rats were anaesthetized (sodium pentobarbitone, 60 mg/kg i.p.) and the left ventricular end-diastolic pressure determined prior to decapitation and removal of the heart for histological analysis.

Question: Which results are given for `CC[C@H](C)[C@H](NC(=O)[C@H](C)NC(=O)[C@@H](NC(=O)[C@H](CCC(N)=O)NC(=O)[C@H](C)NC(=O)[C@H](CCCNC(=N)N)NC(=O)[C@@H](NC(=O)[C@H](CC(C)C)NC(=O)[C@H](CCC(=O)O)NC(=O)[C@H](CCCNC(=N)N)NC(=O)CNC(=O)[C@H](CO)NC(=O)[C@H](CC(C)C)NC(=O)[C@H](CCCCN)NC(=O)[C@@H](NC(=O)[C@@H](N)C(C)C)[C@@H](C)CC)C(C)C)[C@@H](C)CC)C(=O)N[C@@H](CO)C(=O)NCC(=O)N[C@@H](CCSC)C(=O)N[C@@H](CO)C(=O)N[C@H](C(=O)N[C@@H](Cc1c[nH]c2ccccc12)C(=O)N[C@@H](CO)C(=O)N[C@@H](CCCCN)C(=O)N[C@@H](CCCNC(=N)N)C(=O)N[C@@H](CO)C(=O)N[C@@H](CC(C)C)C(N)=O)[C@@H](C)O` [B7-33 C11.23S] (H-VIKLSGRELVRAQIAISGMSTWSKRSL-NH2)?
Answer: Airway hyper-responsiveness (change in airway resistance to methacholine) ([1]; OVA-induced increase, invasive plethysmography, FIG. 8D): attenuated; Mean airway epithelial thickness ([1]; compared to OVA treatment, FIG. 8B): significantly reduced; Total lung collagen content (hydroxyproline analysis) ([1]; relative to OVA treatment, FIG. 8C): normalised; Percentage of collagen in the interstitial area of the left ventricle ([2]; 0.5 mg/kg/day i.p. mini-pump for 28 days from 8 weeks after MI): significant reduction; Left ventricular end-diastolic pressure (LVEDP) ([2]; 12 weeks after myocardial infarction): reduced
